Reference: patent US20220378756A1, “ACTIVATING PYRUVATE KINASE R” (FORMA Therapeutics, Inc., priority 2019, published 2022)

System: 2,3-DPG, ATP and p50 in blood
Assay: Phase 1 SAD/MAD, healthy volunteers: pharmacodynamics
Assay type: in vivo, human
Settings: for Median Percentage Change in 2,3-DPG Levels: HV
Text: This is a first-in-human (FIH), Phase 1 study of Compound 1 that will characterize the safety, PK, and PD of Compound 1 after a single dose and after repeated dosing first in healthy adult volunteers and then in adolescents or adults with sickle cell disease. Initially, a dose range of Compound 1 in single ascending dose (SAD) escalation cohorts will be explored in healthy subjects. Enrollment of healthy subjects into 2-week multiple ascending dose (MAD) escalation cohorts will be initiated once the safety and PK from at least two SAD cohorts is available to inform the doses for the 2-week MAD portion of the study. The MAD cohorts will then run in parallel to the single dose cohorts. A single dose cohort is planned to understand food effects (FE) on the PK of Compound 1. […] Multiple dose studies in SCD subjects will then be initiated upon completion of MAD studies in healthy volunteers. Compound 1 will be administered in 25 mg and 100 mg tablets delivered orally.
In this study, SAD/MAD cohorts are randomized (3 to 1) to receive Compound 1 or placebo (P). Compound 1 was evaluated first in 4 healthy SAD cohorts and 4 healthy MAD (14-day dosing period) cohorts. Based on the safety, and PK/PD profile from HS, Compound 1 is then evaluated in 1 SCD SAD cohort and 2 SCD MAD cohorts. Specifically, based on the safety and pharmacokinetic/pharmacodynamics (PK/PD) profile in healthy volunteer studies, Compound 1 is evaluated in patients (pts) with SCD, first in a single dose (SD or SAD) cohort and then in multiple-dose (MD or MAD) cohorts (14-day and 12-week). Safety assessments include AEs, vital signs, ECGs and laboratory parameters. PK/PD blood sampling was performed on Day 1 (SAD/MAD) and Day 14 (MAD) and up to 72 h after the last dose and at the end-of-study visit. PD parameters included 2,3-DPG, ATP, and p50 in all cohorts with additional PD studies (including oxygen scan) performed only in the SCD cohorts. PD parameters included 2,3-DPG, ATP, p50, RBC deformability with controlled deoxygenation and reoxygenation (Lorrca® oxygen scan) and varying osmolality (Lorrca® osmoscan)). To maintain study blind, pt identifiers were removed when needed.
Four healthy SAD cohorts were evaluated at doses of 200, 400, 700, and 1000 mg, and four healthy MAD cohorts received 200 to 600 mg total daily doses for 14 days at QD or BID dosing (100 mg BID, 200 mg BID, 300 mg BID, and 400 mg QD). In the food effect (FE) cohort, 10 healthy subjects received 200 mg of Compound 1 QD with and without food.
In the SAD cohorts, the subjects' blood 2,3-DPG levels were measured periodically after dosing by a qualified LC-MS/MS method for the quantitation of 2,3-DPG in blood. Decreased 2,3-DPG blood levels were observed 6 hours following a single dose of Compound 1 at all dose levels (earlier timepoints were not collected). Maximum decreases in 2,3-DPG levels generally occurred ˜24 hours after the first dose with the reduction sustained ˜48-72 hr postdose. Table 16 reports the median percentage change in 2,3-DPG blood levels, relative to baseline, measured over time in healthy volunteers after a single dose of Compound 1 (200 mg, 400 mg, 700 mg, or 1000 mg) or placebo. Accordingly, the median reduction in the concentration of 2,3-DPG, relative to baseline, was at least about […] at all dose levels tested 24 hours after administration of the single dose.
In the MAD cohorts, the subjects' blood 2,3-DPG levels were measured periodically after dosing by a qualified LC-MS/MS method for the quantitation of 2,3-DPG in blood. The maximum decrease in 2,3-DPG on Day 14 was 55% from baseline (median). […] Table 18 reports the median percentage change in 2,3-DPG blood levels, relative to baseline, measured over time after the first dose on days 1 and 14 in healthy volunteers who received daily doses of Compound 1 (100 mg BID, 200 mg BID, or 300 mg BID) or placebo for 14 days. […]

[1] = MAD, N = 36, all doses and timepoints
[2] = SAD, N = 24, all doses and timepoints

O=C([C@H](CO)c1ccccc1)N1CC2=C(C1)CN(S(=O)(=O)c1cnc3c(c1)OCCO3)C2 (single isomer, unassigned) [Compound 1]
Median Percentage Change in 2,3-DPG Levels (300 mg BID, Day 1, 16 h after first daily dose): −40.7% | Median Percentage Change in 2,3-DPG Levels (300 mg BID, Day 1, 24 h after first daily dose): −50.8% | Median Percentage Change in 2,3-DPG Levels (300 mg BID, Day 14, 0 h after first daily dose): −59.4% | Median Percentage Change in 2,3-DPG Levels (300 mg BID, Day 14, 6 h after first daily dose): −53.0% | Median Percentage Change in 2,3-DPG Levels (300 mg BID, Day 14, 8 h after first daily dose): −54.2% | Median Percentage Change in 2,3-DPG Levels (300 mg BID, Day 14, 12 h after first daily dose): −55.3% | Median Percentage Change in 2,3-DPG Levels (300 mg BID, Day 14, 16 h after first daily dose): −52.4% | Median Percentage Change in 2,3-DPG Levels (300 mg BID, Day 14, 24 h after first daily dose): −52.1% | Median Percentage Change in 2,3-DPG Levels (300 mg BID, Day 14, 48 h after first daily dose): −44.5% | Median Percentage Change in 2,3-DPG Levels (300 mg BID, Day 14, 72 h after first daily dose): −32.9% | Median Percentage Change in 2,3-DPG Levels (single dose 200 mg, 0 h after dose): 0.0% | Median Percentage Change in 2,3-DPG Levels (single dose 200 mg, 6 h after dose): −18% | Median Percentage Change in 2,3-DPG Levels (single dose 200 mg, 8 h after dose): −17% | Median Percentage Change in 2,3-DPG Levels (single dose 200 mg, 12 h after dose): −25% | Median Percentage Change in 2,3-DPG Levels (single dose 200 mg, 16 h after dose): −33% | Median Percentage Change in 2,3-DPG Levels (single dose 200 mg, 24 h after dose): −31% | Median Percentage Change in 2,3-DPG Levels (single dose 200 mg, 36 h after dose): −33% | Median Percentage Change in 2,3-DPG Levels (single dose 200 mg, 48 h after dose): −29% | Median Percentage Change in 2,3-DPG Levels (single dose 200 mg, 72 h after dose): −18% | Median Percentage Change in 2,3-DPG Levels (single dose 400 mg, 0 h after dose): 0.0% | Median Percentage Change in 2,3-DPG Levels (single dose 400 mg, 6 h after dose): −23% | Median Percentage Change in 2,3-DPG Levels (single dose 400 mg, 8 h after dose): −29% | Median Percentage Change in 2,3-DPG Levels (single dose 400 mg, 12 h after dose): −40% | Median Percentage Change in 2,3-DPG Levels (single dose 400 mg, 16 h after dose): −35% | Median Percentage Change in 2,3-DPG Levels (single dose 400 mg, 24 h after dose): −39% | Median Percentage Change in 2,3-DPG Levels (single dose 400 mg, 36 h after dose): −38% | Median Percentage Change in 2,3-DPG Levels (single dose 400 mg, 48 h after dose): −31% | Median Percentage Change in 2,3-DPG Levels (single dose 400 mg, 72 h after dose): −30% | Median Percentage Change in 2,3-DPG Levels (single dose 700 mg, 0 h after dose): 0.0% | Median Percentage Change in 2,3-DPG Levels (single dose 700 mg, 6 h after dose): −29% | Median Percentage Change in 2,3-DPG Levels (single dose 700 mg, 8 h after dose): −28% | Median Percentage Change in 2,3-DPG Levels (single dose 700 mg, 12 h after dose): −41% | Median Percentage Change in 2,3-DPG Levels (single dose 700 mg, 16 h after dose): −46% | Median Percentage Change in 2,3-DPG Levels (single dose 700 mg, 24 h after dose): −49% | Median Percentage Change in 2,3-DPG Levels (single dose 700 mg, 36 h after dose): −46% | Median Percentage Change in 2,3-DPG Levels (single dose 700 mg, 48 h after dose): −48% | Median Percentage Change in 2,3-DPG Levels (single dose 700 mg, 72 h after dose): −33% | Median Percentage Change in 2,3-DPG Levels (single dose 1000 mg, 0 h after dose): 0.0% | Median Percentage Change in 2,3-DPG Levels (single dose 1000 mg, 6 h after dose): −20% | Median Percentage Change in 2,3-DPG Levels (single dose 1000 mg, 8 h after dose): −31% | Median Percentage Change in 2,3-DPG Levels (single dose 1000 mg, 12 h after dose): −44% | Median Percentage Change in 2,3-DPG Levels (single dose 1000 mg, 16 h after dose): −50% | Median Percentage Change in 2,3-DPG Levels (single dose 1000 mg, 24 h after dose): −48% | Median Percentage Change in 2,3-DPG Levels (single dose 1000 mg, 36 h after dose): −47% | Median Percentage Change in 2,3-DPG Levels (single dose 1000 mg, 48 h after dose): −47% | Median Percentage Change in 2,3-DPG Levels (single dose 1000 mg, 72 h after dose): −21% | mean maximum reduction in the concentration of 2,3-DPG (MAD study): at least 50% | mean maximum reduction in the concentration of 2,3-DPG, range (MAD study): 46.1-63.6% | Mean Maximum Percent Change from Baseline, 2,3-DPG [1]: −56.3% | Mean Maximum Percent Change from Baseline, ATP [1]: 68.5% | mean maximum reduction in the concentration of 2,3-DPG (SAD study): at least 40% | mean maximum reduction in the concentration of 2,3-DPG, range (SAD study): 35.4-56.1% | Mean Maximum Percent Change from Baseline, 2,3-DPG [2]: −46.8% | Mean Maximum Percent Change from Baseline, ATP [2]: 24.4%
